In ChEMBL document CHEMBL4819009, “Modulators of hERAP2 discovered by high-throughput screening” (Eur J Med Chem, 2021):

Assays:
[1] = target: Endoplasmic reticulum aminopeptidase 1 (Homo sapiens) (UniProt Q9NZ08); test: Inhibition of recombinant C-terminal 10-His-tagged human ERAP1 at 100 uM using L-AMC as substrate preincubated for 30 mins followed by substrate addition measured every 3 mins for 1 hr by flourescence assay relative to control; settings: time 90.0 min
[2] = target: T1, Endoplasmic reticulum aminopeptidase 2 (Homo sapiens, UniProt Q6P179); test: Activation of recombinant ERAP2 (unknown origin) expressed in baculovirus infected Hi-5 insect cells at 100 uM using R-AMC as substrate preincubated for 30 mins followed by substrate addition and measured every 3 mins for 1 hr by flourescence assay relative to control; settings: filed as activator, time 90.0 min
T1 sequence (Q6P179 whole entry): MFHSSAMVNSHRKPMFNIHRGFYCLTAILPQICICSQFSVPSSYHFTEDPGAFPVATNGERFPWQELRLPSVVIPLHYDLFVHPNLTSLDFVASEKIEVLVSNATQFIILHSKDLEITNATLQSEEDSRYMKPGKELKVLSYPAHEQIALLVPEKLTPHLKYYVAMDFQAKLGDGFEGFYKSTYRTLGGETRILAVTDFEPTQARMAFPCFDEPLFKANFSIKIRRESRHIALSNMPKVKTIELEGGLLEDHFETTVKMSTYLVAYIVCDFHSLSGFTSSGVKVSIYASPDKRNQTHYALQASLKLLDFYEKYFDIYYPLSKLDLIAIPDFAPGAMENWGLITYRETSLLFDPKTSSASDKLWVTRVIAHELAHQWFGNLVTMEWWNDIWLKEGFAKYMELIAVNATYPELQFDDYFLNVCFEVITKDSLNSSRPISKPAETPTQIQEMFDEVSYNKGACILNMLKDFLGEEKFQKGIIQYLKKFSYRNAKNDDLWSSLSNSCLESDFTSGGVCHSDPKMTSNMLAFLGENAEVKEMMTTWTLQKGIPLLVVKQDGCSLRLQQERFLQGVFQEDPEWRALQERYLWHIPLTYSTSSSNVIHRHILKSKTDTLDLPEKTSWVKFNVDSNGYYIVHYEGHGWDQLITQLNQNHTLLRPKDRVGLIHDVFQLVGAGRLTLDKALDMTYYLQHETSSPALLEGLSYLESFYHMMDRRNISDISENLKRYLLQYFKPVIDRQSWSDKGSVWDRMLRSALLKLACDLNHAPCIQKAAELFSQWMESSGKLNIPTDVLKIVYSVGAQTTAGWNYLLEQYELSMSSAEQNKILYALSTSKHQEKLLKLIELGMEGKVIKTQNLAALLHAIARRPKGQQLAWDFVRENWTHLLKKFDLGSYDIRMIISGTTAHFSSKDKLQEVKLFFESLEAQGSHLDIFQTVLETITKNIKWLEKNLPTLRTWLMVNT

[3] = target: Leucyl-cystinyl aminopeptidase (IRAP), Homo sapiens (UniProt Q9UIQ6); test: Inhibition of recombinant human IRAP expressed in HEK293 cells at 100 uM using L-AMC as substrate preincubated for 30 mins followed by substrate addition measured every 3 mins for 1 hr by flourescence assay relative to control; settings: time 90.0 min
Chain of Leucyl-cystinyl aminopeptidase (IRAP), Homo sapiens (Q9UIQ6 whole entry, looked up): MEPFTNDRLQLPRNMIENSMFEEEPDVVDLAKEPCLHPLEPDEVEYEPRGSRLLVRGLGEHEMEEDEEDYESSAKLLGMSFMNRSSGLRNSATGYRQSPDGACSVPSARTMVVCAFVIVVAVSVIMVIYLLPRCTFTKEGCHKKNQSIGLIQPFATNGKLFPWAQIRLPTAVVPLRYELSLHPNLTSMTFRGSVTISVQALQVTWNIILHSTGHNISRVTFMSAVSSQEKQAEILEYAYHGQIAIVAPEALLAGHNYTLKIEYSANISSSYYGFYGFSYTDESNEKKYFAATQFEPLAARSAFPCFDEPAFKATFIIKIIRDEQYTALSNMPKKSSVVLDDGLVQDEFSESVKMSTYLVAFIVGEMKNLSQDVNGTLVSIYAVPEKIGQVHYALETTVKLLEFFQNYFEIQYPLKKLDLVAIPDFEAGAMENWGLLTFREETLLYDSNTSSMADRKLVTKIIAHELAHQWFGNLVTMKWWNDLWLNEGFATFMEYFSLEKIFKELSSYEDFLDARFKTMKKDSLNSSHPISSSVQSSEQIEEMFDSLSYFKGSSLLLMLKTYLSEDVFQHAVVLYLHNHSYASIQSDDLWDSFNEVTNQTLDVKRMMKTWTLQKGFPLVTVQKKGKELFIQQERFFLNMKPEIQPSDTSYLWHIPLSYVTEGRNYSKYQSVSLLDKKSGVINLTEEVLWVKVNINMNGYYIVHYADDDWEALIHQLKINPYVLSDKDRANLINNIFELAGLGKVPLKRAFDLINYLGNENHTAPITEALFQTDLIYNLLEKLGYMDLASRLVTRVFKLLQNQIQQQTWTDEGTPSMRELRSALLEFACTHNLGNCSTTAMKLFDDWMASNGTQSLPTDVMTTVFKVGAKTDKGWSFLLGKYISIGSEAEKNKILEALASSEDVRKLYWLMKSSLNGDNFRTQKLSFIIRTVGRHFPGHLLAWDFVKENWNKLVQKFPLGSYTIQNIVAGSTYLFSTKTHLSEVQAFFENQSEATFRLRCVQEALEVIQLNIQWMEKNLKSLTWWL

[4] = target: T1, Endoplasmic reticulum aminopeptidase 2; test: Inhibition of human ERAP2
[5] = target: T1, Endoplasmic reticulum aminopeptidase 2; test: Inhibition of human ERAP2 assessed as hydrolysis of KSIINFEKL to SIINFEKL measured after 2 hrs by LC-MS analysis
[6] = target: T1, Endoplasmic reticulum aminopeptidase 2; test: Inhibition of recombinant ERAP2 (unknown origin) expressed in baculovirus infected Hi-5 insect cells using R-AMC as substrate preincubated for 30 mins followed by substrate addition and measured every 3 mins for 1 hr by flourescence assay
[7] = target: T1, Endoplasmic reticulum aminopeptidase 2; test: Inhibition of recombinant ERAP2 (unknown origin) expressed in baculovirus infected insect cells at 2 mM using R-AMC as substrate preincubated for 30 mins followed by substrate addition and measured every 3 mins for 1 hr by flourescence assay relative to control; settings: time 90.0 min

Chain of Endoplasmic reticulum aminopeptidase 1 (Homo sapiens) (Q9NZ08 whole entry): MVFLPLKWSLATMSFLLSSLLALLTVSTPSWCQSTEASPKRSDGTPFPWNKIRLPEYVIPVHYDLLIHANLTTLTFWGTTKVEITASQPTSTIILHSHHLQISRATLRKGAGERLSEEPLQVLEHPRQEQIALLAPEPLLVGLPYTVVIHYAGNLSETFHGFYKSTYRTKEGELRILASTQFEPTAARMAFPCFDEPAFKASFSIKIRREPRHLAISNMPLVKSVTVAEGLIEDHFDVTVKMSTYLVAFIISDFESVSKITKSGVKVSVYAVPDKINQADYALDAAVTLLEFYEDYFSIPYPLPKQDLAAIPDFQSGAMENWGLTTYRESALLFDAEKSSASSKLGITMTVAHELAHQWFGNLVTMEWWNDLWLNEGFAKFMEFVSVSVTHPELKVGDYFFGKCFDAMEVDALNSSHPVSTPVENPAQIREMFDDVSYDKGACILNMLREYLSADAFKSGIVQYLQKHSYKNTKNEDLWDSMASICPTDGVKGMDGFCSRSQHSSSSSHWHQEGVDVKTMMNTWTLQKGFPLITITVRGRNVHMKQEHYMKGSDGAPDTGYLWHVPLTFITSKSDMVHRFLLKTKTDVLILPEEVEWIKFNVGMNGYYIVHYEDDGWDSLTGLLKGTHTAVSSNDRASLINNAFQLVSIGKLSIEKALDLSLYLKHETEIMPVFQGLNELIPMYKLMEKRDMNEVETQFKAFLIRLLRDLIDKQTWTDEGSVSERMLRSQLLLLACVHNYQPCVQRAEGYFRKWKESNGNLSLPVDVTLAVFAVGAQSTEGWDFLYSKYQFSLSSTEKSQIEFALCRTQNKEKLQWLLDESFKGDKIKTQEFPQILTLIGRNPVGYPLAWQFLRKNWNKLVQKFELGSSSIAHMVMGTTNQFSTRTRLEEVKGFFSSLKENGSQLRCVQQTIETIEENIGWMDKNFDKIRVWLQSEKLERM

Row | Compound | inhibition [1] [%] | fold change (FC) [2] | inhibition [3] [%] | further results
1 | O=C(O)CN(CC(=O)N1CCN(Cc2ccccc2)C[C@@H]1Cc1c[nH]c2ccccc12)c1ccccc1 | < 10 |  |  | 
2 | CN(C(=O)c1ccc(N(CCc2ccccc2)S(=O)(=O)c2ccc(F)cc2)cc1)[C@@H](Cc1ccccc1)C(=O)O | < 20 | 1.84 | 50 | 
3 | C#CC[C@H](CP(=O)(O)[C@@H](N)CCc1ccccc1)C(=O)N[C@@H](Cc1ccccc1)C(N)=O |  |  |  | IC50 [4]: 33 µM
4 | CN(C(=O)c1ccc(N(CCN2CCCC2)S(=O)(=O)c2ccc(F)cc2)cc1)[C@@H](Cc1ccccc1)C(=O)O | 10 |  | 49 | IC50 [5]: 98 µM; IC50 [6]: 9.7 µM
5 | CC(C)C[C@@H](C(=O)O)N(C)C(=O)c1ccc(N(CCc2ccccc2)S(=O)(=O)c2ccccc2)cc1 |  | 1.43 |  | 
6 | CC(C)C[C@H](NC(=O)[C@@H](O)[C@H](N)Cc1ccccc1)C(=O)O |  |  |  | inhibition [7]: 100%
7 | CN(C(=O)c1ccc(N(CCc2ccccc2)S(=O)(=O)c2ccccc2)cc1)[C@@H](Cc1ccccc1)C(=O)O | < 20 | 1.76 | 50 | IC50 [5]: 89 µM
8 | CC(C)C[C@@H](C(=O)O)N(C)C(=O)c1ccc(N(CCc2ccccc2)S(=O)(=O)c2ccc(F)cc2)cc1 |  | 1.46 |  | 
